From US7175872B2, “Pyridinium-Betain compounds for use as taste modulators” (Nestec S.A., priority 2002, dated 2007)
Structures can show the parent of a compound that is named as a salt.

Key:
[1] = tested on: beef taste recombinate; test: Effect of Alapyridaine on the taste profile of a beef broth taste recombinate; type: in vivo; conditions: pH 5
Excerpt: The beef taste recombinate (K. Shima et al., J. Agric. Food. Chem. 1998, 46, 1465–1468) consisting of 16 amino acids, 4 sugars, three 5′-nucleotides, 3 carbonic acids, 3 salts, and 4 other compounds was used as a sample having a basic brothy taste at pH 5, i.e. (in mg/L water) threonine (68), serine (38), MSG (64), proline (16), glycine (56), alanine (192), valine (34), methionine (20), isoleucine (16), leucine (28), tyrosine (38), phenylalanine (26), lysine hydrochloride (44), histidine (38), arginine (32), taurine (248), ribose (4), mannose (8), fructose (20), glucose (40), IMP.2Na.5H20 (424), GMP.2Na7H20 (80), AMP (60), pyroglutamic acid (1296), lactic acid (3567), succinic acid (98), NaCl (854), KCl (3940), MgCl2.6H20 (1104), CaCl2.2H20 (14), H3PO4, carnosine (912), creatine (1106), and creatinine (572) were dissolved in 1 L of water, and the pH was adjusted to 5.0.
The sensory panel was asked to score the given taste qualities of the biomimetic beef taste recombinate on a scale from 0 (not detectable) to 5 (strong). To study the influence of Alapyridaine on the taste qualities of that recombinate, a triangle test was performed with two glass vials containing the pure beef taste recombinate, and one glass vial containing the beef taste recombinate plus a known amount of Alapyridaine. […]

[2] = tested on: salty taste of NaCl; test: Salt taste detection threshold of NaCl/Pyridinium-Betaine mixtures (triangle test, sensory panel); type: in vivo; conditions: mixture with NaCl, pH 7.0
Protocol: • Sensory panel training: […] Sensory analyses were performed in a sensory panel room at 22-25° C. on three different sessions. • Taste thresholds: The taste thresholds of the tastants or mixtures containing basic tastants plus Pyridinium-Betains were determined in a triangle test using Evian® mineral water as the solvent at a defined pH ([…] and H.-D. Belitz, Z. Lebensm. Unters. Forsch. 1975, 159, 65-72). The samples (3 mL) were presented in order of increasing concentrations (serial 1:1 dilutions). The threshold values evaluated in two different sessions were averaged. […] The taste intensities of aqueous (Evian®) solutions containing a basic tastant, such as glucose and MSG, for example, in constant concentrations and the compounds of the general formula (A), for example […], in various concentrations were compared with those of a solution containing the basic tastant only. […] The relative taste strength (taste enhancing factor) of a mixture containing the basic […] was related to the basic tastants glucose, MSG, or other tastants, respectively, as standard substances, and was determined as the ratio of the concentrations c of iso-intensely tasting solutions of the basic tastant, such as glucose (glc), and the mixture containing tastant plus Pyridinium-Betain, […])=[…] […] This taste enhancing effect is illustrated in examples.

Structure (SMILES): CC(C(=O)[O-])[n+]1cc(O)ccc1CO (centres unmarked) [Alapyridaine, N-(1-carboxyethyl)-3-hydroxy-6-hydroxymethyl-pyridinium inner salt]
- effect on taste profile of beef taste recombinate ([1]; 0.5 mg/L Alapyridaine added): increased the umami character and decreased the sour note
- effect on taste profile of beef taste recombinate ([1]; 5 mg/L Alapyridaine added): more intense umami, sweet and salty taste and a reduced sourness
- Salt detection threshold [2]: 2.0 mmol/kg water
- Taste quality [2]: salty
- Threshold decrease ([2]; vs NaCl in water 10.0 mmol/L): 5.0
